Measured values: ChEMBL document CHEMBL1687842, “Different genetic elements carrying the tet(W) gene in two human clinical isolates of Streptococcus suis” (2011)
In brackets after ≈: the same amount, converted by molar mass.

What was measured:
Type in all cases: functional
[1] = system: Streptococcus suis; test: Antimicrobial activity against Streptococcus suis CA isolated from cerebrospinal fluid of patient with meningitis by broth microdilution method
[2] = system: Streptococcus suis; test: Antimicrobial activity against Streptococcus suis UD isolated from cerebrospinal fluid of patient with meningitis by broth microdilution method
[3] = system: Streptococcus pyogenes; test: Ratio of MIC for Streptococcus pyogenes 12RF transconjugant harboring ermB and tetW gene from Streptococcus suis UD to wild type Streptococcus suis UD

MIC [1] [µg/mL] | MIC [2] [µg/mL] | SMILES | Ratio [3]
> 256 | 4 (≈ 5.45 µM) | CC[C@H]1OC(=O)[C@H](C)[C@@H](O[C@H]2C[C@@](C)(OC)[C@@H](O)[C@H](C)O2)[C@H](C)[C@@H](O[C@@H]2O[C@H](C)C[C@H](N(C)C)[C@H]2O)[C@](C)(O)C[C@@H](C)C(=O)[C@H](C)[C@@H](O)[C@]1(C)O [ERYTHROMYCIN] | –
– | – | NC[C@H]1O[C@H](O[C@H]2[C@H](O)[C@@H](O[C@H]3O[C@H](CO)[C@@H](O)[C@H](N)[C@H]3O)[C@H](N)C[C@@H]2N)[C@H](O)[C@@H](O)[C@@H]1O [KANAMYCIN] | 16
– | – | CN[C@@H]1[C@H](O[C@H]2[C@H](O[C@H]3[C@H](O)[C@@H](O)[C@H](N=C(N)N)[C@@H](O)[C@@H]3N=C(N)N)O[C@@H](C)[C@]2(O)C=O)O[C@@H](CO)[C@H](O)[C@H]1O [STREPTOMYCIN] | 8
16 (≈ 36 µM) | 8 (≈ 18 µM) | CN(C)[C@@H]1C(O)=C(C(N)=O)C(=O)[C@@]2(O)C(O)=C3C(=O)c4c(O)cccc4[C@@](C)(O)[C@H]3C[C@@H]12 [TETRACYCLINE] | –
